Laboratory results as given in article PMC5622025, “Synthesis and biological evaluation of tricyclic matrinic derivatives as a class of novel anti-HCV agents” (Chemistry Central Journal, 2017).
Where a name gives a salt, the structure may show the parent alone. Read-outs that look alike come from different tables or passages of the source.

Key:
[1] = test system: Huh7.5 cells; assay: Cytotoxicity assay (MTT) in Huh7.5 cells; type: cell-based, human
Procedure: (§1) All the target compounds were evaluated for their anti-HCV activities (EC50) and cytotoxicities (CC50) in human Huh7.5 cells using specific real-time RT-PCR assay, as described earlier. As an important indicator, the selectivity index (SI) was calculated as a ratio of CC50 to EC50. Anti-HCV ability of a given compound was estimated by combining its EC50 with SI values.
(§2) Human liver cell line Huh7.5 cells (kindly provided by Vertex Pharmaceuticals, Inc., Boston, MA) were cultured in Dulbecco’s modified eagle medium (DMEM) supplemented with 10% inactivated fetal bovine serum and 1% penicillin–streptomycin (invitrogen). Cells were digested with 0.05% trypsin-ethylene diamine tetraacetic acid (EDTA) and split twice a week.
(§3) Huh7.5 cells were seeded into 96-well plates (Costar) at a density of 3 × 10^4 cells cm^−2. After 24 h incubation, fresh culture medium containing test compounds at various concentrations were added. 72 h later, cytotoxicity was evaluated with 3-(4,5-dimethylthiazol-2-yl)-2,5-diphenyltetrazolium bromide (MTT).

[2] = test system: HCV; assay: Anti-HCV effect in vitro, intracellular HCV RNA by real-time RT-PCR in infected Huh7.5 cells; type: cell-based, hepatitis C virus; settings: for EC50: read-out: EC50 (concentration required to inhibit HCV growth by 50%); for SI (ratio of CC50 to EC50): Huh7.5 cells
Procedure: as §1, §2
Huh7.5 cells were seeded into 96-well or 6-well plates (Costar) at a density of 3 × 10^4 cells cm^−2. After 24 h incubation, the cells were infected with HCV viral stock (45 IU cell^−1) and simultaneously treated with the test compounds at various concentrations or solvent as control. The culture medium was removed after 72 h inoculation, the intracellular total RNA (in 96-well plates) was extracted with RNeasy Mini Kit (Qiagen), and total intracellular proteins (in 6-well plates) were extracted with Cyto-Buster Protein Extraction Reagent added with 1 mM protease inhibitor cocktail. The intracellular HCV RNA was quantified with a real time one-step reverse-transcription polymerase chain reaction (RT-PCR).

[3] = Cytotoxicity assay (MTT) in Huh7.5 cells; type: cell-based, human; settings: human
Procedure: as §1, §2, §3

[4] = HCV-infected Huh7.5 cells, 72 h, real-time RT-PCR
[5] = Huh7.5 cells, 72 h, MTT, read-out: CC50 (cytotoxic concentration required to inhibit Huh7.5 cell growth by 50%)
[6] = Hepatitis C virus, Huh7.5, 72 h

O=[N+]([O-])c1cccc(CN2C[C@@H]3CCCN4CCC[C@@H]([C@H]34)[C@H]2/C=C\CCO)c1 (as salt: hydrochloride) [compound 20, (Z)-12N-(3-nitrobenzyl)-Δ^βγ-matrinic crotonol dihydrochloride] gave a melting point of 143 to 145 °C.
In the case of OCCCC[C@@H]1[C@H]2CCCN3CCC[C@@H](CN1Cc1ccc(F)cc1)[C@@H]23 [3a], the CC50 [1] is reported as 285 ± 7.45 µM, the EC50 [2, 4] is reported as 2.99 ± 1.51 µM and the “SI (ratio of CC50 to EC50)” value [2] is reported as 95.3.
For CCCN1C[C@@H]2CCCN3CCC[C@@H]([C@H]23)[C@H]1CCCCO [3b], the CC50 [1] was over 500 µM, the EC50 [2, 4] was 16.4 ± 10.9 µM and the “SI (ratio of CC50 to EC50)” value [2] was over 30.5.
In the case of CCCCCCCN1C[C@@H]2CCCN3CCC[C@@H]([C@H]23)[C@H]1CCCCO [3c], the CC50 [1] is reported as 33.3 ± 6.49 µM, the EC50 [2, 4] is reported as 1.01 ± 0.55 µM and the “SI (ratio of CC50 to EC50)” value [2] is reported as 32.9.
With CCCCCCCCN1C[C@@H]2CCCN3CCC[C@@H]([C@H]23)[C@H]1CCCCO [3d] the CC50 [1] was 17.8 ± 2.44 µM, the EC50 [2, 4] was 0.8 ± 0.26 µM and the “SI (ratio of CC50 to EC50)” value [2] was 22.3.
In the case of COC(=O)CCC[C@@H]1[C@H]2CCCN3CCC[C@@H](CN1Cc1ccc(OC)cc1)[C@@H]23.Cl.Cl [6a, Methyl 12N-(4-methoxybenzyl)matrinate dihydrochloride], the CC50 [1] is reported as 414 ± 7.34 µM, the EC50 [2, 4] is reported as 7.01 ± 1.51 µM and the “SI (ratio of CC50 to EC50)” value [2] is reported as 59.1.
For COC(=O)CCC[C@@H]1[C@H]2CCCN3CCC[C@@H](CN1Cc1ccc(C)cc1)[C@@H]23 [6b, Methyl 12N-(4-methylbenzyl)matrinate], the CC50 [1, 5] was 133 ± 7.53 µM, the EC50 [2, 4] was 1.73 ± 1.36 µM and the “SI (ratio of CC50 to EC50)” value [2] was 76.8.
In the case of C=Cc1ccc(CN2C[C@@H]3CCCN4CCC[C@@H]([C@H]34)[C@H]2CCCC(=O)OC)cc1 [6c, Methyl 12N-(4-vinylbenzyl)matrinate], the CC50 [1, 5] is reported as 81.2 ± 12.9 µM, the EC50 [2, 4] is reported as 1.61 ± 0.76 µM and the “SI (ratio of CC50 to EC50)” value [2] is reported as 50.4.
With COC(=O)CCC[C@@H]1[C@H]2CCCN3CCC[C@@H](CN1Cc1ccc(F)cc1F)[C@@H]23 [6d, Methyl 12N-(2,4-difluorobenzyl)matrinate] the CC50 [1, 5] was 261 ± 28.7 µM, the EC50 [2, 4] was 1.69 ± 1.47 µM and the “SI (ratio of CC50 to EC50)” value [2] was 154.
In the case of COC(=O)CCCC1C2CCCN3CCCC(CN1Cc1ccc([N+](=O)[O-])cc1)C23.Cl.Cl (stereo not drawn) [6e, Methyl 12N-(4-nitrobenzyl)matrinate dihydrochloride], the CC50 [1] is reported as 235 ± 48.2 µM, the EC50 [2, 4] is reported as 14.2 ± 3.13 µM and the “SI (ratio of CC50 to EC50)” value [2] is reported as 16.5.
For COC(=O)CCC[C@@H]1[C@H]2CCCN3CCC[C@@H](CN1Cc1ccncc1)[C@@H]23 [6f, Methyl 12N-(pyridin-4-ylmethyl)matrinate], the CC50 [1] was over 500 µM, the EC50 [2, 4] was 4.66 ± 0.35 µM and the “SI (ratio of CC50 to EC50)” value [2] was over 107.
In the case of Cl.Cl.OCCCCC1C2CCCN3CCCC(CN1Cc1ccc(Cl)cn1)C23 (stereo not drawn) [7 g, 12N-(5-Chloropyridin-2-ylmethyl)matrinol dihydrochloride], the CC50 [1] is reported as over 500 µM, the EC50 [2, 4] is reported as 10.9 ± 5.59 µM and the “SI (ratio of CC50 to EC50)” value [2] is reported as over 45.9.
For O=C(CN1C[C@@H]2CCCN3CCC[C@@H]([C@H]23)[C@H]1CCCCO)Nc1ccccc1 [7 h, 12N-(2-Oxo-2-(phenylamino)ethyl)matrinol], the CC50 [1] was over 500 µM, the EC50 [2, 4] was 46.7 ± 41 µM and the “SI (ratio of CC50 to EC50)” value [2] was over 10.7.
With C=Cc1ccc(CN2C[C@@H]3CCCN4CCC[C@@H]([C@H]34)[C@H]2CCCCO)cc1.Cl.Cl [7c, 12N-(4-Vinylbenzyl)matrinol dihydrochloride] the CC50 [1] was 143 ± 32.3 µM, the EC50 [2, 4] was 3.16 ± 0.51 µM and the “SI (ratio of CC50 to EC50)” value [2] was 45.3.
With OCCCCC1C2CCCN3CCCC(CN1Cc1ccc(F)cc1F)C23 (stereo not drawn) [7d, 12N-(2,4-Difluorobenzyl)matrinol dihydrochloride] the CC50 [1, 5] was 266 ± 9.47 µM and the EC50 [2, 4] was under 2.06 µM.
For Cl.Cl.OCCCC[C@@H]1[C@H]2CCCN3CCC[C@@H](CN1Cc1ccncc1)[C@@H]23 [7e, 12N-(Pyridin-4-ylmethyl)matrinol dihydrochloride], the CC50 [1] was over 500 µM, the EC50 [2, 4] was 9.03 ± 5.58 µM and the “SI (ratio of CC50 to EC50)” value [2] was over 55.4.
For OCCCCC1C2CCCN3CCCC(CN1Cc1cccnc1)C23 (stereo not drawn) [7f, 12N-(Pyridin-3-ylmethyl)matrinol], the CC50 [1] was over 500 µM, the EC50 [2, 4] was 4.39 ± 3.01 µM and the “SI (ratio of CC50 to EC50)” value [2] was over 114.
In the case of Cl.Cl.O=C(CN1CC2CCCN3CCCC(C1CCCCO)C23)Nc1ccc(C(F)(F)F)cc1 (stereo not drawn) [7i, 12N-(2-Oxo-2-((4-(trifluoromethyl)phenyl)amino)ethyl)matrinol dihydrochloride], the CC50 [1] is reported as 86.2 ± 4.33 µM, the EC50 [2, 4] is reported as 4.19 ± 1.44 µM and the “SI (ratio of CC50 to EC50)” value [2] is reported as 20.6.
With COc1ccc(CN2C[C@@H]3CCCN4CCC[C@@H]([C@H]34)[C@H]2CCCC(C)(C)O)cc1.Cl.Cl [10a, 1′,1′-Dimethyl-12N-(4-methoxybenzyl)matrinol dihydrochloride] the CC50 [1] was over 140 µM, the EC50 [2, 4] was 11.7 ± 0.06 µM and the “SI (ratio of CC50 to EC50)” value [2] was 12.0.
In the case of Cc1ccc(CN2CC3CCCN4CCCC(C2CCCC(C)(C)O)C34)cc1.Cl.Cl (stereo not drawn) [10b, 1′,1′-Dimethyl-12N-(4-methylbenzyl)matrinol dihydrochloride], the CC50 [1] is reported as 55.7 ± 7.5 µM, the EC50 [2, 4] is reported as 0.82 ± 0.26 µM and the “SI (ratio of CC50 to EC50)” value [2] is reported as 67.9.
With CCC(O)(CC)CCC[C@@H]1[C@H]2CCCN3CCC[C@@H](CN1Cc1ccc(C)cc1)[C@@H]23.Cl.Cl [10c, 1′,1′-Diethyl-12N-(4-methylbenzyl)matrinol dihydrochloride] the CC50 [1] was 12.3 ± 4.23 µM, the EC50 [2, 4] was under 0.23 µM and the “SI (ratio of CC50 to EC50)” value [2] was over 53.5.
In the case of CC(C)(O)CCCC1C2CCCN3CCCC(CN1Cc1ccc(F)cc1F)C23.Cl.Cl (stereo not drawn) [10d, 1′,1′-Dimethyl-12N-(2,4-difluorobenzyl)matrinol dihydrochloride], the CC50 [1] is reported as 156 ± 37.9 µM, the EC50 [2, 4] is reported as 6.55 ± 2.69 µM and the “SI (ratio of CC50 to EC50)” value [2] is reported as 23.8.
For CC(C)(O)CCC[C@@H]1[C@H]2CCCN3CCC[C@@H](CN1Cc1ccncc1)[C@@H]23 [10e, 1′,1′-Dimethyl-12N-(4-pyridylmethyl)matrinol], the CC50 [1] was over 500 µM and the EC50 [2, 4] was 80.4 µM.
With COC(=O)C/C=C\C1C2CCCN3CCCC(CN1Cc1ccc(OC)cc1)C23 (stereo not drawn) [13a, (Z)-Methyl 12N-(4-methoxybenzyl)-Δ^βγ-matrinic crotonate] the CC50 [1] was 326 ± 21 µM, the EC50 [2, 4] was 16.7 ± 4.71 µM and the “SI (ratio of CC50 to EC50)” value [2] was 19.5.
With COC(=O)C/C=C\[C@@H]1[C@H]2CCCN3CCC[C@@H](CN1Cc1ccc(F)cc1)[C@@H]23.Cl.Cl [13b, (Z)-Methyl 12N-(4-fluorobenzyl)-Δ^βγ-matrinic crotonate dihydrochloride] the CC50 [1] was 260 ± 84.8 µM, the EC50 [2, 4] was 18.1 ± 6.49 µM and the “SI (ratio of CC50 to EC50)” value [2] was 14.4.
With COC(=O)C/C=C\[C@@H]1[C@H]2CCCN3CCC[C@@H](CN1Cc1cccc([N+](=O)[O-])c1)[C@@H]23.Cl.Cl [13c, (Z)-Methyl 12N-(3-nitrobenzyl)-Δ^βγ-matrinic crotonate dihydrochloride] the CC50 [1, 5] was 402 ± 83.6 µM, the EC50 [2, 4] was 40.4 ± 3.64 µM and the “SI (ratio of CC50 to EC50)” value [2] was 10.0.
In the case of COc1ccc(CN2CC3CCCN4CCCC(C2/C=C\CCO)C34)cc1.Cl.Cl (stereo not drawn) [14a, (Z)-12N-(4-Methoxybenzyl)-Δ^βγ-matrinic crotonol dihydrochloride], the CC50 [1] is reported as 214 ± 95 µM, the EC50 [2, 4] is reported as 8.8 ± 2.15 µM and the “SI (ratio of CC50 to EC50)” value [2] is reported as 24.3.
For Cl.Cl.OCC/C=C\C1C2CCCN3CCCC(CN1Cc1ccc(F)cc1)C23 (stereo not drawn) [14b, (Z)-12N-4-(Fluorobenzyl)-Δ^βγ-matrinic crotonol dihydrochloride], the CC50 [1] was 156 ± 65.8 µM, the EC50 [2, 4] was 13.6 ± 2.63 µM and the “SI (ratio of CC50 to EC50)” value [2] was 11.5.
With CCC[C@H](NC(=O)[C@@H]1[C@H]2CCC[C@H]2CN1C(=O)[C@@H](NC(=O)[C@@H](NC(=O)c1cnccn1)C1CCCCC1)C(C)(C)C)C(=O)C(=O)NC1CC1 [Tela, telaprevir, reference compound] the CC50 at 72 h [3] was 47.6 ± 0.61 µM, the EC50 [2, 6] was 0.02 ± 0.02 µM and the “SI (ratio of CC50 to EC50)” value [2] was 1950.
In the case of COC(=O)CCC[C@@H]1[C@H]2CCCN3CCC[C@@H](CN1Cc1ccc(F)cc1)[C@@H]23 [compound 2], the CC50 [1, 5] is reported as 274 ± 8.35 µM, the EC50 [2, 4] is reported as 2.09 ± 1.65 µM and the “SI (ratio of CC50 to EC50)” value [2] is reported as 131.
CCCC[C@@H]1[C@H]2CCCN3CCC[C@@H](CN1Cc1ccc(OC)cc1)[C@@H]23 [compound 9, 12N-4-methoxybenzyl matrinic butane] gave a melting point of 73 to 74 °C, a CC50 at 72 h [3, 5] of 41.9 ± 1.1 µM and an EC50 [2, 6] of 1.16 ± 0.25 µM. The “SI (ratio of CC50 to EC50)” value [2] was 36.1.
In the case of O=[N+]([O-])c1cccc(CN2C[C@@H]3CCCN4CCC[C@@H]([C@H]34)[C@H]2/C=C\CCO)c1 [compound 20, (Z)-12N-(3-nitrobenzyl)-Δ^βγ-matrinic crotonol dihydrochloride], the CC50 at 72 h [3, 5] is reported as 312 ± 31.1 µM, the EC50 [2, 6] is reported as 18.4 ± 1.64 µM and the “SI (ratio of CC50 to EC50)” value [2] is reported as 17.0.
